Reference: ChEMBL document CHEMBL1201862, “PubChem BioAssay data set” (2004)
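Values below derive from 48-hour exposures of cells grown in 96-well plates, with endpoints linearly interpolated between the two concentrations bracketing the appropriate inhibition level. GI50 marks 50% less growth.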 Active and inactive are the calls of the source. Cut-off read from the data, not from the text of the source: active = GI50 up to about 1.1 µM and inactive = higher.

How the values were obtained:
Experiment in all cases: NCI-60 cell line screen, 48 h
[1] = tested on: HCT-116
[2] = tested on: NCI-H522
[3] = tested on: COLO 205
[4] = tested on: KM12
[5] = tested on: M14
[6] = tested on: A498
[7] = tested on: SF-295
[8] = tested on: A549
[9] = tested on: NCI-H226
[10] = tested on: 786-0
[11] = tested on: HOP-92
[12] = tested on: MDA-N
[13] = tested on: HT-29
[14] = tested on: SK-MEL-5
[15] = tested on: SF-539
[16] = tested on: SN12C
[17] = tested on: DU-145
[18] = tested on: PC-3
[19] = tested on: SK-MEL-2
[20] = tested on: U-251

Measured: GI50

CC(C)[Si](OCC/C=C/C1CCC(=O)C1C(O)C1CCCCC1)(C(C)C)C(C)C (stereo not given)
inactive: [1] 14.7 µM | [2] 12 µM | [3] 16.3 µM | [4] 15.9 µM | [5] 17.2 µM | [6] 18.3 µM | [7] 16 µM | [8] 13.8 µM | [9] 16 µM | [10] 15.9 µM | [11] 11.8 µM | [12] 19.2 µM | [13] 13.2 µM | [14] 14.3 µM | [15] 19.8 µM | [16] 18.2 µM | [17] 16.4 µM | [18] 13.3 µM | [19] 12.9 µM | [20] 15.8 µM

C=C(Cl)CN1c2ccccc2C=Cc2ccccc21
inactive: [1] 5.01 µM | [2] 21.6 µM | [3] 12.8 µM | [4] 11 µM | [5] 17 µM | [6] 34.7 µM | [7] 10.4 µM | [8] 15.6 µM | [9] 27.5 µM | [10] 14.2 µM | [11] 22.3 µM | [12] 15 µM | [13] 9.44 µM | [14] 7.23 µM | [15] 18 µM | [16] 20.6 µM | [17] 29.7 µM | [18] 9.12 µM | [19] 18.7 µM | [20] 10.1 µM

C=C(C)[C@@H]1CC[C@]2(C(=O)O)CC[C@]3(C)[C@H](CC[C@@H]4[C@@]5(C)CC(=O)C(C)(C)[C@@H]5CC[C@]43C)[C@@H]12
inactive: [1] 4.01 µM | [2] 5.78 µM | [3] 4.68 µM | [4] 8.77 µM | [5] 8.65 µM | [6] 5.6 µM | [7] 6.47 µM | [8] 5.56 µM | [9] 9.38 µM | [10] 7 µM | [11] 11.1 µM | [12] 8.13 µM | [13] 7.19 µM | [14] 5.7 µM | [15] 6.08 µM | [16] 4.46 µM | [17] 12.5 µM | [18] 7.24 µM | [19] 4.52 µM | [20] 6.47 µM

C[C@@H]1C[C@@H]2OC(=O)[C@]3(C)[C@H]2[C@@H](OC3(C)O)[C@]2(C)C(=O)C=C[C@@H]12 (stereo not given in full) [TENULIN]
inactive: [1] 16.6 µM | [2] 6.67 µM | [3] 14.2 µM | [4] 23.6 µM | [5] 20.6 µM | [6] 22.6 µM | [7] > 100 µM | [8] > 100 µM | [9] 74 µM | [10] 31.1 µM | [11] 17.5 µM | [12] 17.5 µM | [13] 15.2 µM | [14] 20.2 µM | [15] 32.1 µM | [16] 18.3 µM | [17] 39.6 µM | [18] 87.9 µM | [19] 19.8 µM | [20] 40.3 µM
